Results taken from the METLIN SMRT retention time set (Domingo-Almenara et al. 2019).

experiment: gradient 5% acetonitrile 3 min, to 50% in 2 min, to 85% in 15 min, held 3 min, 100 µL/min; conditions: column: Zorbax Extend-C18 2.1 x 50 mm; eluents: water / acetonitrile, 0.1% formic acid
Summary of the method: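 Pure standards were analyzed in mixtures of ~100 molecules using HPLC coupled to a quadrupole time-of-flight mass spectrometer, in both positive and negative ionization mode. Separation used a Zorbax Extend-C18 column (2.1 × 50 mm, 1.8 μm) at 100 μL/min, with water and acetonitrile each containing 0.1% formic acid. Dead and dwell volumes were 40 μL and 900 μL, and data were collected over 3 months. Retention time was read from computationally picked adduct peaks, each inspected manually.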

| SMILES | RP-LC retention time |
| --- | --- |
| Cc1nn(CC(=O)NCCC2=CCCCC2)c(=O)c2c(-n3cccc3)n(-c3cccc(F)c3)nc12 | 1090 s |
| Cc1cnc(C(=O)NCC2Cn3cccc3C(=O)N2C)cn1 (stereo not given) | 595 s |
| CCOc1ccccc1CNC(=O)CN1CCN(Cc2cccc(Cl)c2)C1=O | 910 s |
| COc1ccc(OC)c(-c2cn3ccn(-c4cccc(Cl)c4)c(=O)c3n2)c1 | 887 s |
| CCN(CC)C(=O)c1cc(=O)[nH]c2ccccc12 | 624 s |
| O=C(NCCC1=CCCCC1)C1CCCN(c2nc3ccsc3c(=O)n2Cc2ccc(F)cc2)C1 (stereo not given) | 1090 s |
| COc1ccc(C)cc1NC(=O)C1CC(=O)N(c2ccc3c(c2)CCN3C(=O)C2CC2)C1 (stereo not given) | 836 s |
| Cc1sc(NC(=O)c2ccccc2Br)nc1-c1ccc2c(c1)N(C)C(=O)CO2 | 960 s |
| CCOC(=O)c1[nH]c(C)c(CN(Cc2ccco2)C(=O)Nc2cccc(F)c2)c1C | 990 s |
| Fc1ccc(Cl)cc1-c1nc(Nc2ccncc2)c2nccnc2n1 | 648 s |
| CCOc1ccc(NC(=O)N(C)CC2CCOCC2)cc1 | 719 s |
| NC(=O)C1CCN(C(=O)CN2c3ccccc3NC3=C(C(=O)CCC3)C2c2cccs2)CC1 (stereo not given) | 630 s |
| CC1CCN(c2nc3c(c(=O)n(Cc4ccccc4F)c(=O)n3C)n2C)CC1 | 1130 s |
| Cc1cccc(CNc2nnc(-c3nnc(C)o3)c3ccccc23)c1 | 831 s |
| CCc1ccc(NC(=O)COc2cc(C)nc(N3CCN(c4ccccc4)CC3)n2)cc1 | 885 s |
| Cc1ccc(-c2nc(C3CC(=O)N(c4ccc(C)cc4)C3)no2)cc1 (stereo not given) | 1080 s |
| O=C(NCCCN1CCN(c2ccc(F)cc2)CC1)C1CCCN(c2nc3cccnc3s2)C1 (stereo not given) | 645 s |
| COC(=O)c1ccc2c(=O)n(-c3cccc(C)c3)c(N3CCCCC3)nc2c1 | 1240 s |
| CCOC(=O)c1ccc(NC(=O)c2csc(-c3cn(C)c4ncccc34)n2)cc1 | 826 s |
| CC1(C(=O)NCc2ccc(F)c(Cl)c2)Oc2cccnc2NC1=O (stereo not given) | 730 s |
| CCc1nn2c(CNC(=O)c3cc(F)ccc3Cl)c(C)nc2s1 | 669 s |
| COC(=O)c1cc(C2CC2)nc2c1c(=O)n(Cc1cccc(C)c1)c(=O)n2C | 1090 s |

| SMILES | RP-LC retention time |
| --- | --- |
| CCn1cc(CCNC(=O)Nc2cccc(Cl)c2C)c2cccnc21 | 761 s |
| CCn1cc(-c2nc(CC(=O)Nc3cc(C)ccc3OC)cs2)c2cccnc21 | 1040 s |
| O=C(NCc1ccco1)C1CCN(c2cnn(Cc3ccccc3)c(=O)c2)CC1 | 723 s |
| COc1ccc(CNC(=O)C2CCN(c3cnc4nccnc4c3)CC2)cc1 | 664 s |
| Cc1ccc(-c2coc(-c3cccc(NS(=O)(=O)c4cccc5nsnc45)c3)n2)cc1 | 1180 s |
| O=C(Cc1nnc(-c2ccc3ncccc3c2)o1)N1CCN(c2ccccc2)CC1 | 716 s |
| COc1cc(C(=O)N2CCCN(c3cc(=O)n(C)c(=O)n3C)CC2)cc(OC)c1OC | 624 s |
| CCN(CC)CCOCCOC(=O)C(CC)(CC)c1ccccc1 | 763 s |
| O=S(=O)(c1cc(-c2noc(C3CC3)n2)cs1)N1CCN(c2ccccn2)CC1 | 719 s |
| CCn1nc(-c2csc(S(=O)(=O)N3CCC(C)CC3)c2)ccc1=O | 971 s |
| CCn1c(C)c(C(=O)CN(CC2CCCO2)C(=O)c2cccc(F)c2)c(C)c1C(=O)OC (stereo not given) | 896 s |
| Cc1cccc2nc(-c3ccc(N(C)C)cc3)c(Nc3ccc4c(c3)OCO4)n12 | 747 s |
| COc1ccc(NC(=O)Cn2nc3nc(N4CCCCC4C)ccn3c2=O)cc1 (stereo not given) | 755 s |
| CCN(CC)S(=O)(=O)c1ccc2c(c1)CC(C(=O)NCCC1=CCCCC1)N2C(C)=O (stereo not given) | 921 s |
| Cc1ccc2c(c1)C(=O)NC1(CCN(C(=O)c3ccc(C(F)(F)F)cc3)CC1)N2C | 871 s |
| CCN1C(=O)c2cccnc2Sc2cc(NC(=O)CCOC)ccc21 | 645 s |
| CC(Oc1ccccc1Cl)C(=O)NCCn1cnc(-c2ccccc2)cc1=O (stereo not given) | 790 s |
| O=C1CN(S(=O)(=O)c2cc(F)ccc2F)C2(CCCCC2)CN1CC1CC1 | 959 s |
| Cc1ccc(S(=O)(=O)N2C(=O)CCC2C(=O)N(C)C2CCCCC2)cc1C (stereo not given) | 1010 s |
| COCCn1ccc2nc(C)c(C(=O)N3CCN(c4ncccn4)CC3)cc2c1=O | 609 s |
| CCn1c(=O)sc2cc(S(=O)(=O)N3CCC(C(=O)NC4CCCCC4)CC3)ccc21 | 876 s |
| Cn1cnc(S(=O)(=O)N2CCC(C(=O)NCc3ccccc3)CC2)c1 | 660 s |

Second part, the compound after the results:

| RP-LC retention time | SMILES |
| --- | --- |
| 992 s | CC(C)CCNC(=O)c1ccc2ccnc(N3CCN(c4ccc(Cl)cc4)CC3)c2c1 |
| 702 s | Cc1[nH]c(C(=O)N2CCC(CC(=O)N3CCOCC3)CC2)c(C)c1C(=O)OC(C)C |
| 603 s | CCOc1ccc(S(=O)(=O)NCC(c2cn(C)c3ccccc23)N(C)C)cc1F (stereo not given) |
| 695 s | COCCc1noc(-c2ccc(=O)n(CC(=O)Nc3ccccc3)c2)n1 |
| 715 s | Cc1ccc(Nc2nc(C)cc(N3CCN(C(=O)c4ccc(Br)o4)CC3)n2)cc1 |
| 684 s | O=C(Cc1nnc(-c2ccccc2)o1)NCC1CC1 |
| 901 s | O=C(Nc1ccc2c(c1)CN(S(=O)(=O)c1ccccc1)CC2)NC1CCCCC1 |
| 787 s | O=C(NC1CCN(c2cc(-c3ccc(Cl)cc3)[nH]n2)C1)c1ccccc1Br (stereo not given) |
| 1120 s | Cc1cc(C)c(S(=O)(=O)N2CCC(n3cnc4c(C)cccc4c3=O)CC2)c(C)c1 |
| 1240 s | CCn1nccc1-c1cccc(-c2noc(-c3cc(OC)cc(OC)c3)n2)c1 |
| 756 s | COc1ccc(NC(=O)Cn2c(=O)c(CCC(=O)NCC(C)C)nc3ccccc32)cc1OC |
| 672 s | COc1cc(NC(=O)CCc2c(-c3ccc(F)cc3)nc3ccccn23)cc(OC)c1 |
| 663 s | Cc1cc2c(cc1NC(=O)c1cccs1)n(C)c(=O)c(=O)n2C |
| 565 s | CCn1c(=O)c(=O)n(CC(=O)NCCN2CCCCC2)c2cccnc21 |
| 821 s | Cc1ccc(C(=O)NC2CCN(c3cc(-c4ccc(Cl)cc4)[nH]n3)C2)cc1 (stereo not given) |
| 678 s | O=C(CCC(=O)N1CC2CCCN2c2ccccc21)N1CCN(Cc2ccccc2)CC1 (stereo not given) |
| 826 s | CC(C)Cn1nc(CNC(=O)c2cnccn2)c2ccccc21 |
| 885 s | Cc1cccc(-c2nnc(-c3cccc(S(=O)(=O)N4CCOCC4)c3)o2)c1 |
| 694 s | O=C(CCc1c(-c2ccc(F)cc2)nc2ccccn12)N1CCN(c2ccccc2F)CC1 |
| 749 s | CC(C)N1CCN(Cc2ccc(C(=O)NC3CCCCCC3)cc2)C(=O)C1=O |
| 907 s | CCC(=O)N(CCOC)CC(=O)N1CCc2sccc2C1COc1ccc(Cl)cc1 (stereo not given) |
